# Experimental data reported in ChEMBL document CHEMBL4118131, “Synthesis of 1,2,4-triazole-linked urea/thiourea conjugates as cytotoxic and apoptosis inducing agents” (Bioorg Med Chem Lett, 2018).
# Legend:
# Assay type in all cases: functional, cell-based
# B16-F10 = test: Cytotoxicity in mouse B16/F10 cells assessed as reduction in cell viability incubated for 48 hrs by MTT assay; conditions: B16-F10, 48 h
# MCF7 = test: Cytotoxicity in human MCF7 cells assessed as reduction in cell viability incubated for 48 hrs by MTT assay; conditions: MCF7, 48 h
# MDA-MB-231 = test: Cytotoxicity in human MDA-MB-231 cells assessed as reduction in cell viability incubated for 48 hrs by MTT assay; conditions: MDA-MB-231, 48 h
# A549 = test: Cytotoxicity in human A549 cells assessed as reduction in cell viability incubated for 48 hrs by MTT assay; conditions: A549, 48 h
# DU-145 = test: Cytotoxicity in human DU145 cells assessed as reduction in cell viability incubated for 48 hrs by MTT assay; conditions: DU-145, 48 h
Structure (SMILES),IC50 (B16-F10) [µM],IC50 (MCF7) [µM],IC50 (MDA-MB-231) [µM],IC50 (A549) [µM],IC50 (DU-145) [µM]
Cc1ccsc1CN(C(=O)Nc1cccc(C#N)c1)n1cnnc1,28.9,> 50,> 50,26,31
CCCCCCCCCNC(=S)N(Cc1cc(OC)ccc1OC)n1cnnc1,29.4,> 50,> 50,> 50,> 50
COc1ccc(OC)c(CN(C(=S)NC2CCCCC2)n2cnnc2)c1,39.5,> 50,> 50,21.5,29.8
Cc1ccc(NC(=O)N(Cc2ccccn2)n2cnnc2)cc1,35.2,38.9,39.5,21.9,21.5
COc1cc(CN(C(=S)Nc2cc(C(F)(F)F)cc(C(F)(F)F)c2)n2cnnc2)cc(OC)c1OC,5.62,23.8,24.9,21,23.1
COc1cc(CN(C(=O)Nc2ccc(C#N)cc2)n2cnnc2)cc(OC)c1OC,21,> 50,> 50,20.7,20.6
Cc1ccsc1CN(C(=O)Nc1ccc(Cl)c(C(F)(F)F)c1)n1cnnc1,22.1,30.1,29.6,26.2,24.1
COc1ccc(CN(C(=S)Nc2cc(C(F)(F)F)cc(C(F)(F)F)c2)n2cnnc2)cc1OC,8.54,15.5,25.3,16.2,26.4
COc1cc(CN(C(=S)Nc2ccc(C)cc2)n2cnnc2)cc(OC)c1OC,46.8,> 50,> 50,22.8,20.8
Cc1ccsc1CN(C(=O)Nc1cccc(Cl)c1)n1cnnc1,> 50,31.2,40.3,21.4,20.4
COc1ccc(CN(C(=O)Nc2ccc(C#N)cc2)n2cnnc2)cc1OC,> 50,> 50,> 50,> 50,24.1
COc1ccc(CN(C(=S)Nc2ccc(C)cc2)n2cnnc2)cc1OC,29.9,> 50,> 50,22.2,26.3
COc1ccc(CN(C(=S)Nc2ccc(F)c(Cl)c2)n2cnnc2)cc1OC,20.7,30.1,27.9,21,23.3
